Experimental data published in patent US11753407B2, “Compounds for treating spinal muscular atrophy” (PTC Therapeutics, Inc., priority 2012, dated 2023).

Experiments:
[1] = tested on: SMN2 minigene mRNA (SMN2-A minigene) in HEK293H cells; assay: SMN2 minigene mRNA splicing RT-qPCR assay in cultured cells; assay type: cell-based, human; settings: Homo sapiens, HEK293-H; concentration increasing full length SMN2 mRNA 1.5-fold relative to vehicle-treated cells; HEK293H cells with SMN2-A minigene, 24 hours, 7-point concentration data; read-out: EC1.5x for production of full length SMN2 mRNA
Method in brief: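 HEK293H cells stably carrying SMN2-A minigene treated with compounds (7-point, 3.16-fold dilutions, duplicates) for 24 h at 37 °C. Full-length exon 7-containing minigene mRNA measured by multiplex RT-qPCR with GAPDH, normalized and expressed relative to vehicle (modified ΔΔCt); EC1.5× is concentration giving 1.5-fold increase.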

[2] = tested on: Smn protein in SMA patient fibroblast cells (GM03813); assay: Smn protein assay in cultured cells (SMN HTRF); assay type: cell-based, human; settings: SMA patient fibroblast cells, 48 hours; for EC1.5x for Smn protein expression: 7-point concentration curve, SMN HTRF, concentration producing 1.5 times Smn protein vs DMSO vehicle control; for maximum fold (Fold) increase of Smn protein: 7-point concentration data, fold relative to vehicle control
Method in brief: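 SMA patient fibroblasts (5,000/well, DMEM-10% FBS) treated 48 h at 37° C with 7-point, 3.16-fold compound series in triplicate; lysates read by SMN HTRF (665/620 nm ratio). Fold Smn increase over DMSO vehicle derived; EC1.5× is concentration giving 1.5-fold Smn, with maximum fold also reported.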

Cc1nc2ccc(-c3cc(=O)n4cc(C5CCNCC5)ccc4n3)cc2s1 [Compound 424, 2-(2-methyl-1,3-benzothiazol-6-yl)-7-(piperidin-4-yl)-4H-pyrido[1,2-a]pyrimidin-4-one]
EC (1.5-fold increase) [1]: < 0.1 µM
EC1.5x for Smn protein expression [2]: **** (an EC1.5x≤0.3 μM is indicated by four stars (****))
maximum fold (Fold) increase of Smn protein [2]: ***** (a fold increase >1.65 is indicated by five stars (*****))
melting point: 222 to 224 °C

Cc1cn2nc(-c3cc(=O)n4cc(N5CCC(N6CCCC6)CC5)ccc4n3)cc2c(C)n1 [Compound 425, 2-(4,6-dimethylpyrazolo[1,5-a]pyrazin-2-yl)-7-[4-(pyrrolidin-1-yl)piperidin-1-yl]-4H-pyrido[1,2-a]pyrimidin-4-one]
EC (1.5-fold increase) [1]: < 0.1 µM
EC1.5x for Smn protein expression [2]: **** (an EC1.5x≤0.3 μM is indicated by four stars (****))
maximum fold (Fold) increase of Smn protein [2]: ***** (a fold increase >1.65 is indicated by five stars (*****))
melting point: 215 to 218 °C

Cc1cn2nc(-c3cc(=O)n4cc(N5CCC(N6CCCCC6)CC5)ccc4n3)cc2c(C)n1 [Compound 426, 7-(1,4′-bipiperidin-1′-yl)-2-(4,6-dimethylpyrazolo[1,5-a]pyrazin-2-yl)-4H-pyrido[1,2-a]pyrimidin-4-one]
EC (1.5-fold increase) [1]: 0.3 to 1 µM
EC1.5x for Smn protein expression [2]: *** (an EC1.5× between >0.3 μM and ≤1 μM is indicated by three stars (***))
maximum fold (Fold) increase of Smn protein [2]: ***** (a fold increase >1.65 is indicated by five stars (*****))
melting point: 236 to 238 °C

Cc1cn2nc(-c3cc(=O)n4cc(N5CCC(N6CCN(C)CC6)CC5)ccc4n3)cc2c(C)n1 [Compound 427, 2-(4,6-dimethylpyrazolo[1,5-a]pyrazin-2-yl)-7-[4-(4-methylpiperazin-1-yl)piperidin-1-yl]-4H-pyrido[1,2-a]pyrimidin-4-one]
EC (1.5-fold increase) [1]: 1 to 3 µM
EC1.5x for Smn protein expression [2]: * (An EC1.5× for Smn protein expression between >3 μM and ≤10 μM is indicated by one star (*))
maximum fold (Fold) increase of Smn protein [2]: *** (a fold increase between >1.35 and ≤1.5 is indicated by three stars (***))
melting point: 198 to 200 °C

Cc1cn2nc(-c3cc(=O)n4cc(N5CCC(N6CCOCC6)CC5)ccc4n3)cc2c(C)n1 [Compound 428, 2-(4,6-dimethylpyrazolo[1,5-a]pyrazin-2-yl)-7-[4-(morpholin-4-yl)piperidin-1-yl]-4H-pyrido[1,2-a]pyrimidin-4-one]
EC (1.5-fold increase) [1]: 0.3 to 1 µM
EC1.5x for Smn protein expression [2]: ** (an EC1.5× between >1 μM and ≤3 μM is indicated by two stars (**))
maximum fold (Fold) increase of Smn protein [2]: *** (a fold increase between >1.35 and ≤1.5 is indicated by three stars (***))
melting point: 192 to 195 °C

Cc1cn2cc(-c3cc(=O)n4cc(C5=CCNCC5)ccc4n3)ccc2n1 [Compound 429, 2-(2-methylimidazo[1,2-a]pyridin-6-yl)-7-(1,2,3,6-tetrahydropyridin-4-yl)-4H-pyrido[1,2-a]pyrimidin-4-one]
EC (1.5-fold increase) [1]: < 0.1 µM
EC1.5x for Smn protein expression [2]: **** (an EC1.5x≤0.3 μM is indicated by four stars (****))
maximum fold (Fold) increase of Smn protein [2]: **** (a fold increase between >1.5 and ≤1.65 is indicated by four stars (****))
melting point: 206 to 208 °C

Cc1cn2cc(-c3cc(=O)n4cc(C5=CCN(C)CC5)ccc4n3)ccc2n1 [Compound 430, 2-(2-methylimidazo[1,2-a]pyridin-6-yl)-7-(1-methyl-1,2,3,6-tetrahydropyridin-4-yl)-4H-pyrido[1,2-a]pyrimidin-4-one]
EC (1.5-fold increase) [1]: < 0.1 µM
EC1.5x for Smn protein expression [2]: **** (an EC1.5x≤0.3 μM is indicated by four stars (****))
maximum fold (Fold) increase of Smn protein [2]: **** (a fold increase between >1.5 and ≤1.65 is indicated by four stars (****))
melting point: 137 to 140 °C

CCN1CC=C(c2ccc3nc(-c4ccc5nc(C)cn5c4)cc(=O)n3c2)CC1 [Compound 431, 7-(1-ethyl-1,2,3,6-tetrahydropyridin-4-yl)-2-(2-methylimidazo[1,2-a]pyridin-6-yl)-4H-pyrido[1,2-a]pyrimidin-4-one]
EC (1.5-fold increase) [1]: < 0.1 µM
EC1.5x for Smn protein expression [2]: **** (an EC1.5x≤0.3 μM is indicated by four stars (****))
maximum fold (Fold) increase of Smn protein [2]: ***** (a fold increase >1.65 is indicated by five stars (*****))
melting point: 220 to 223 °C

Cc1cn2cc(-c3cc(=O)n4cc(N5CCC(N(C)C)CC5)ccc4n3)ccc2n1 [Compound 432, 7-[4-(dimethylamino)piperidin-1-yl]-2-(2-methylimidazo[1,2-a]pyridin-6-yl)-4H-pyrido[1,2-a]pyrimidin-4-one]
EC (1.5-fold increase) [1]: < 0.1 µM
EC1.5x for Smn protein expression [2]: **** (an EC1.5x≤0.3 μM is indicated by four stars (****))
maximum fold (Fold) increase of Smn protein [2]: ***** (a fold increase >1.65 is indicated by five stars (*****))
melting point: 204 to 206 °C

COc1ccc(-c2cc(=O)n3cc(N4CCC(NCCO)CC4)cc(C)c3n2)cc1OC [Compound 433, 2-(3,4-dimethoxyphenyl)-7-{4-[(2-hydroxyethyl)amino]piperidin-1-yl}-9-methyl-4H-pyrido[1,2-a]pyrimidin-4-one]
EC (1.5-fold increase) [1]: < 0.1 µM
maximum fold (Fold) increase of Smn protein [2]: *** (a fold increase between >1.35 and ≤1.5 is indicated by three stars (***))
melting point: 185 to 193 °C

CCc1cc(C2CCN(C)CC2)cn2c(=O)cc(-c3ccc(OC)c(OC)c3)nc12 [Compound 434, 2-(3,4-dimethoxyphenyl)-9-ethyl-7-(1-methylpiperidin-4-yl)-4H-pyrido[1,2-a]pyrimidin-4-one]
EC (1.5-fold increase) [1]: 0.3 to 1 µM
maximum fold (Fold) increase of Smn protein [2]: ** (a fold increase between >1.2 and ≤1.35 is indicated by two stars (**))
melting point: 146 °C

CCN(CC)C1CCN(c2cc(C)c3nc(-c4ccc(OC)c(OC)c4)cc(=O)n3c2)CC1 [Compound 435, 7-[4-(diethylamino)piperidin-1-yl]-2-(3,4-dimethoxyphenyl)-9-methyl-4H-pyrido[1,2-a]pyrimidin-4-one]
EC (1.5-fold increase) [1]: 0.1 to 0.3 µM
maximum fold (Fold) increase of Smn protein [2]: *** (a fold increase between >1.35 and ≤1.5 is indicated by three stars (***))
melting point: 149 to 155 °C

CCc1cc(C2CCN(CC)CC2)cn2c(=O)cc(-c3ccc(OC)c(OC)c3)nc12 [Compound 436, 2-(3,4-dimethoxyphenyl)-9-ethyl-7-(1-ethylpiperidin-4-yl)-4H-pyrido[1,2-a]pyrimidin-4-one]
EC (1.5-fold increase) [1]: 0.3 to 1 µM
maximum fold (Fold) increase of Smn protein [2]: ** (a fold increase between >1.2 and ≤1.35 is indicated by two stars (**))
melting point: 157 to 162 °C

Cc1cn2cc(-c3cc(=O)n4cc(N5CCC(N6CCCC6)CC5)ccc4n3)ccc2n1 [Compound 437, 2-(2-methylimidazo[1,2-a]pyridin-6-yl)-7-[4-(pyrrolidin-1-yl)piperidin-1-yl]-4H-pyrido[1,2-a]pyrimidin-4-one]
EC (1.5-fold increase) [1]: 0.1 to 0.3 µM
EC1.5x for Smn protein expression [2]: *** (an EC1.5× between >0.3 μM and ≤1 μM is indicated by three stars (***))
maximum fold (Fold) increase of Smn protein [2]: **** (a fold increase between >1.5 and ≤1.65 is indicated by four stars (****))
melting point: 230 to 232 °C
